According to BindingDB's records for doi:10.1016/j.bmcl.2005.04.021 (Novartis Institutes For Biomedical Research, 2005):

Biological target: T1, Adenosine receptor A2b (Homo sapiens, UniProt P29275)
T1 sequence (P29275 whole entry): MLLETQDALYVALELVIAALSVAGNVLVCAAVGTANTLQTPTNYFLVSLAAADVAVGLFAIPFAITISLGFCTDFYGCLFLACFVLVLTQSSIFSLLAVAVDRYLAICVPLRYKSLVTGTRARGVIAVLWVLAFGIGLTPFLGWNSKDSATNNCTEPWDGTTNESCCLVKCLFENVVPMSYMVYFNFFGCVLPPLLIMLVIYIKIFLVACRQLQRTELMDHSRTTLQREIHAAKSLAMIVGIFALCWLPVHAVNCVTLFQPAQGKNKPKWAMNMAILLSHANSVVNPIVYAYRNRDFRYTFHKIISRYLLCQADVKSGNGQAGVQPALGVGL
Experiment: Inhibition of luciferase production elicited by NECA by compound in CHO cells transfected with human adenosine A2b receptor and a luciferase expressing reporter plasmid in a reporter gene assay

| KB [nM] | Compound |
| --- | --- |
| 86 | N#Cc1cccc(-c2nc(Nc3cccnc3)sc2-n2cncn2)c1 [3-[2-(Pyridin-3-ylamino)-5-[1,2,4]triazol-1-yl-thiazol-4-yl]-benzonitrile] |
| 92 | N#Cc1cccc(-c2nc(Nc3cccnc3)sc2-n2ccnc2)c1 [3-[5-Imidazol-1-yl-2-(pyridin-3-ylamino)-thiazol-4-yl]-benzonitrile] |
| 62 | N#Cc1cccc(-c2nc(Nc3ccncc3)sc2-n2cncn2)c1 [3-[2-(Pyridin-4-ylamino)-5-[1,2,4]triazol-1-yl-thiazol-4-yl]-benzonitrile] |
| 53 | N#Cc1cccc(-c2nc(Nc3ccccn3)sc2-n2cncn2)c1 [3-[2-(Pyridin-2-ylamino)-5-[1,2,4]triazol-1-yl-thiazol-4-yl]-benzonitrile] |
